Literature values in US11167054B2, “Activated disinfectant hydrogen peroxide compositions” (LONZA, LLC, priority 2014, dated 2021).
Where two headings read alike, the source gives them in different places.

Key:
[1] = tested on: Staphylococcus Aureus
[2] = tested on: Pseudomonas Aeruginosa
[3] = 6 wt. % hydrogen peroxide solution, 5 minutes contact time
[4] = 6000 ppm (0.6 wt. %) hydrogen peroxide solution, 5 minute contact time

Q: Which “Log reduction against Staphylococcus Aureus” value [1, 3] does the source give for `OO` [hydrogen peroxide] here?
A: The value was roughly 3 Log.

Q: What about the “log reduction against Staphylococcus Aureus” value [1, 4] of the same compound?
A: The value was roughly 1 log.

Q: What about the “Log reduction against Pseudomonas Aeruginosa” value [2, 3] of the same compound?
A: Its value is less than 2 Log.

Q: And the “Log reduction against Pseudomonas Aeruginosa” value [2, 4]?
A: The value was less than 1 Log.
